Source: patent US9012651B2, “TRPV3 modulators” (AbbVie Inc., priority 2011, dated 2015)

molecular target: human TRPV3 receptors (Homo sapiens (Human), UniProt Q8NET8); experiment: Calcium flux assay (FLIPR TETRA), inhibition of the 2-APB response; type: cell-based; settings: recombinant HEK293 cells stably expressing TRPV3, Calcium-4 dye, 2-APB at its EC80
Procedure, shortened: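 HEK293 cells stably expressing human and mouse TRPV3, plated the day before and dye-loaded 90-120 min in the dark, read on FLIPR Tetra. Peak fluorescence increase over baseline was expressed as percent of the maximal 2-APB response without compound.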

Sequence of human TRPV3 receptors (Q8NET8 whole entry): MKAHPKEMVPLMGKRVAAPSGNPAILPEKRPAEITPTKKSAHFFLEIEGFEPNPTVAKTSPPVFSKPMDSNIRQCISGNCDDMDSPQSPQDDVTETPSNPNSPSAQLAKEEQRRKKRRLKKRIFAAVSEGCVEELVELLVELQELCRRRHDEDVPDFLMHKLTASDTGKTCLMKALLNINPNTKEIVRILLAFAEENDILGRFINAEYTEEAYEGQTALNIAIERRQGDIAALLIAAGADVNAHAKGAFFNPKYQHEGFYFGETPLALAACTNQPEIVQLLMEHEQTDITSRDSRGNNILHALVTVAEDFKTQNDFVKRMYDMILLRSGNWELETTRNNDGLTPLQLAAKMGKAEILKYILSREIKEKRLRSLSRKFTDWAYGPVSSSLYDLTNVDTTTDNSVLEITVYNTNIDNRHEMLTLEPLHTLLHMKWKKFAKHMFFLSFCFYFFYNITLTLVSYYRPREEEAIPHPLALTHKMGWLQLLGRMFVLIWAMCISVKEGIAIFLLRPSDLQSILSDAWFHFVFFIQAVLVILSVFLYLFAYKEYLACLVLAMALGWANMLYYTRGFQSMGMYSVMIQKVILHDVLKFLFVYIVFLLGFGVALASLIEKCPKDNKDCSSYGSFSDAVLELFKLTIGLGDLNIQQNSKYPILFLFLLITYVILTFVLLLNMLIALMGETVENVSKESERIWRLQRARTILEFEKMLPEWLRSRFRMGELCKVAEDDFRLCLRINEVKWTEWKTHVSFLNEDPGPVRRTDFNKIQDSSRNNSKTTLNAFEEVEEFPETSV

Q: Which IC50 does the source give for `CC(C)[C@H](CO)NCc1nc(N2Cc3cccc(F)c3C2)ccc1F` [Example 94, (2R)-2-({[3-fluoro-6-(4-fluoro-1,3-dihydro-2H-isoindol-2-yl)pyridin-2-yl]methyl}amino)-3-methylbutan-1-ol] here?
A: Its IC50 is 120 nM.

Q: How did the IC50 turn out when `CC(C)[C@H](CO)NCc1nc(-c2cccc(C(=O)N(C)C3CCCCC3)c2)ccc1F` [Example 52, N-cyclohexyl-3-[5-fluoro-6-({[(2R)-1-hydroxy-3-methylbutan-2-yl]amino}methyl)pyridin-2-yl]-N-methylbenzamide] was run?
A: The IC50 was 1420 nM.

Q: `CC(C)[C@H](CO)NCc1nc(-c2ccc(Cl)c(Cl)c2)ccc1F` [Example 20, (2R)-2-({[6-(3,4-dichlorophenyl)-3-fluoropyridin-2-yl]methyl}amino)-3-methylbutan-1-ol] was tested. Which IC50 did it give?
A: Its IC50 is 1390 nM.

Q: Which IC50 does the source give for `OC(CCNCc1ccnc(-c2ccc(C(F)(F)F)cc2)n1)c1ccccc1` (centres unmarked) [Example 164, 1-phenyl-3-[({2-[4-(trifluoromethyl)phenyl]pyrimidin-4-yl}methyl)amino]propan-1-ol] here?
A: Its IC50 is > 20000 nM.

Q: For `Cc1ccc(-c2ccc(C(F)(F)F)nc2)nc1CN[C@@H](CO)C(C)C` [Example 111, (2R)-3-methyl-2-({[5-methyl-6′-(trifluoromethyl)-2,3′-bipyridin-6-yl]methyl}amino)butan-1-ol], which IC50 is on record?
A: The IC50 was 1070 nM.

Q: With `CC(C)[C@H](CO)NCc1cccc(C#Cc2ccccc2F)n1` [Example 285, (2R)-2-[({6-[(2-fluorophenyl)ethynyl]pyridin-2-yl}methyl)amino]-3-methylbutan-1-ol] as the molecule, how does the IC50 read?
A: The IC50 was 990 nM.

Q: With `CC(C)[C@H](CO)NCc1nc(C2CCC3(CC2)OCCO3)ccc1F` [Example 214, (2R)-2-({[6-(1,4-dioxaspiro[4.5]dec-8-yl)-3-fluoropyridin-2-yl]methyl}amino)-3-methylbutan-1-ol] as the molecule, how does the IC50 read?
A: The IC50 was 8280 nM.

Q: `CC(C)[C@H](CO)NCc1nc(-c2ccc(C(F)(F)F)nc2)ccc1Cl` [Example 110, (2R)-2-({[5-chloro-6′-(trifluoromethyl)-2,3′-bipyridin-6-yl]methyl}amino)-3-methylbutan-1-ol] was tested. Which IC50 did it give?
A: Its IC50 is 630 nM.

Q: Which IC50 does the source give for `Cc1cc(-c2ccc(F)c(CN[C@@H](CO)C(C)C)n2)ccc1F` [Example 280, (2R)-2-({[3-fluoro-6-(4-fluoro-3-methylphenyl)pyridin-2-yl]methyl}amino)-3-methylbutan-1-ol] here?
A: Its IC50 is 250 nM.

Q: For `OC[C@H]1CCCC[C@@H]1NCc1ccnc(-c2ccc(C(F)(F)F)cc2)n1` [Example 167, {(1S,2S)-2-[({2-[4-(trifluoromethyl)phenyl]pyrimidin-4-yl}methyl)amino]cyclohexyl}methanol], which IC50 is on record?
A: The IC50 was > 20000 nM.

Q: How did the IC50 turn out when `OC[C@H](NCc1ccnc(-c2ccc(C(F)(F)F)cc2)n1)c1ccccc1` [Example 139, (2R)-2-phenyl-2-[({2-[4-(trifluoromethyl)phenyl]pyrimidin-4-yl}methyl)amino]ethanol] was run?
A: Its IC50 is 8080 nM.

Q: Which IC50 does the source give for `C[C@@H](O)[C@@H](CO)NCc1nc(-c2ccc(C(F)(F)F)nc2)ccc1F` [Example 121, (2R,3R)-2-({[5-fluoro-6′-(trifluoromethyl)-2,3′-bipyridin-6-yl]methyl}amino)butane-1,3-diol] here?
A: Its IC50 is 6180 nM.

Q: Which IC50 does the source give for `CC(C)[C@H](CO)NCc1nc(-c2cc(F)c(F)c(F)c2)ccc1F` [Example 244, (2R)-2-({[3-fluoro-6-(3,4,5-trifluorophenyl)pyridin-2-yl]methyl}amino)-3-methylbutan-1-ol] here?
A: The IC50 was 160 nM.

Q: How did the IC50 turn out when `Cc1cc(-c2ccc(F)c(CN[C@@H](CO)C(C)C)n2)cnc1N1CCOCC1` [Example 253, (2R)-2-({[5-fluoro-5′-methyl-6′-(morpholin-4-yl)-2,3′-bipyridin-6-yl]methyl}amino)-3-methylbutan-1-ol] was run?
A: Its IC50 is 700 nM.

Q: For `CC(C)[C@H](CO)NCc1nc(C#CCC2CCCCC2)ccc1F` [Example 236, (2R)-2-({[6-(3-cyclohexylprop-1-yn-1-yl)-3-fluoropyridin-2-yl]methyl}amino)-3-methylbutan-1-ol], which IC50 is on record?
A: Its IC50 is 980 nM.

Q: With `OC[C@H](NCc1ccnc(-c2ccc(C(F)(F)F)cc2)n1)[C@@H](O)c1ccccc1` [Example 153, (1S,2S)-1-phenyl-2-[({2-[4-(trifluoromethyl)phenyl]pyrimidin-4-yl}methyl)amino]propane-1,3-diol] as the molecule, how does the IC50 read?
A: Its IC50 is 9310 nM.

Q: How did the IC50 turn out when `OCC1(NCc2cccc(-c3ccc(C(F)(F)F)cc3C(F)(F)F)n2)CCCC1` [Example 271, {1-[({6-[2,4-bis(trifluoromethyl)phenyl]pyridin-2-yl}methyl)amino]cyclopentyl}methano 1] was run?
A: The IC50 was 580 nM.

Q: How did the IC50 turn out when `CC(C)[C@H](CO)NCc1cccc(N2CCCCC2)n1` [Example 11, (2R)-3-methyl-2-({[6-(piperidin-1-yl)pyridin-2-yl]methyl}amino)butan-1-ol] was run?
A: The IC50 was 1940 nM.

Q: `C[C@@H](O)[C@H](CO)NCc1ccnc(-c2ccc(C(F)(F)F)cc2)n1` [Example 152, (2S,3R)-2-[({2-[4-(trifluoromethyl)phenyl]pyrimidin-4-yl}methyl)amino]butane-1,3-diol] was tested. Which IC50 did it give?
A: The IC50 was > 20000 nM.

Q: `CC[C@H](CO)NCc1ccnc(-c2ccc(S(=O)(=O)C(F)(F)F)cc2)n1` [Example 209, (2R)-2-{[(2-{4-[(trifluoromethyl)sulfonyl]phenyl}pyrimidin-4-yl)methyl]amino}butan-1-ol] was tested. Which IC50 did it give?
A: Its IC50 is 1470 nM.

Q: `CC(C)[C@H](CO)NCc1nc(C#Cc2ccc(F)c(F)c2)ccc1F` [Example 239, (2R)-2-[({6-[(3,4-difluorophenyl)ethynyl]-3-fluoropyridin-2-yl}methyl)amino]-3-methylbutan-1-ol] was tested. Which IC50 did it give?
A: The IC50 was 370 nM.

Q: For `CC(C)[C@H](CO)NCc1nc(N2CCc3cc(Cl)ccc3C2)ccc1F` [Example 101, (2R)-2-({[6-(6-chloro-3,4-dihydroisoquinolin-2(1H)-yl)-3-fluoropyridin-2-yl]methyl}amino)-3-methylbutan-1-ol], which IC50 is on record?
A: The IC50 was 500 nM.

Q: For `CC(C)[C@H](CO)NCc1nc(N2CCc3ccccc3C2)ccc1F` [Example 70, (2R)-2-({[6-(3,4-dihydroisoquinolin-2(1H)-yl)-3-fluoropyridin-2-yl]methyl}amino)-3-methylbutan-1-ol], which IC50 is on record?
A: Its IC50 is 180 nM.

Q: How did the IC50 turn out when `COc1ccc(C#Cc2ccc(F)c(CN[C@@H](CO)C(C)C)n2)cc1` [Example 235, (2R)-2-[({3-fluoro-6-[(4-methoxyphenyl)ethynyl]pyridin-2-yl}methyl)amino]-3-methylbutan-1-ol] was run?
A: The IC50 was 1110 nM.

Q: How did the IC50 turn out when `CC(C)[C@H](CO)NCc1nc(/C=C/c2cccc(F)c2)ccc1F` [Example 233, (2R)-2-[({3-fluoro-6-[(E)-2-(3-fluorophenyl)ethenyl]pyridin-2-yl}methyl)amino]-3-methylbutan-1-ol] was run?
A: The IC50 was 380 nM.

Q: For `CC(C)[C@H](CO)NCc1nc(-c2ccc(C(F)(F)F)cc2C(F)(F)F)ccc1F` [Example 293, (2R)-2-[({6-[2,4-bis(trifluoromethyl)phenyl]-3-fluoropyridin-2-yl}methyl)amino]-3-methylbutan-1-ol], which IC50 is on record?
A: Its IC50 is 550 nM.

Q: With `OCC1(NCc2nc(-c3ccc(C(F)(F)F)cc3)ccc2F)CCCCC1` [Example 81, {1-[({3-fluoro-6-[4-(trifluoromethyl)phenyl]pyridin-2-yl}methyl)amino]cyclohexyl}methanol] as the molecule, how does the IC50 read?
A: The IC50 was 680 nM.

Q: Which IC50 does the source give for `OC[C@H](NCc1nc(-c2ccc(C(F)(F)F)cc2)ccc1F)C1CCCCC1` [Example 84, (2R)-2-cyclohexyl-2-[({3-fluoro-6-[4-(trifluoromethyl)phenyl]pyridin-2-yl}methyl)amino]ethanol] here?
A: The IC50 was 700 nM.

Q: With `CC(C)[C@H](CO)NCc1nc(-c2cccc(C(F)(F)F)c2)ccc1F` [Example 16, (2R)-2-[({3-fluoro-6-[3-(trifluoromethyl)phenyl]pyridin-2-yl}methyl)amino]-3-methylbutan-1-ol] as the molecule, how does the IC50 read?
A: The IC50 was 1110 nM.

Q: How did the IC50 turn out when `CC(C)[C@H](CO)NCc1nc(N2CCc3c(cccc3C(F)(F)F)C2)ccc1F` [Example 102, (2R)-2-[({3-fluoro-6-[5-(trifluoromethyl)-3,4-dihydroisoquinolin-2(1H)-yl]-pyridin-2-yl}methyl)amino]-3-methylbutan-1-ol] was run?
A: Its IC50 is 350 nM.

Q: How did the IC50 turn out when `C=C(c1ccccc1)c1ccc(F)c(CN[C@@H](CO)C(C)C)n1` [Example 124, (2R)-2-({[3-fluoro-6-(1-phenylethenyl)pyridin-2-yl]methyl}amino)-3-methylbutan-1-ol] was run?
A: Its IC50 is 920 nM.

Q: For `CC(C)[C@@H](NCc1nc(-c2ccc(C(F)(F)F)nc2)ccc1F)C(N)=O` [Example 117, (R)-2-((5-fluoro-6′-(trifluoromethyl)-2,3′-bipyridin-6-yl)methylamino)-3-methylbutanamide], which IC50 is on record?
A: The IC50 was > 20000 nM.

Q: `CC(C)[C@H](CO)NCc1nc(N2CCC(C(F)(F)F)CC2)ccc1F` [Example 66, (2R)-2-[({3-fluoro-6-[4-(trifluoromethyl)piperidin-1-yl]pyridin-2-yl}methyl)amino]-3-methylbutan-1-ol] was tested. Which IC50 did it give?
A: Its IC50 is 220 nM.

Q: `CC(C)[C@H](CO)NCc1cccc(C#Cc2ccc(F)cc2F)n1` [Example 284, (2R)-2-[({6-[(2,4-difluorophenyl)ethynyl]pyridin-2-yl}methyl)amino]-3-methylbutan-1-ol] was tested. Which IC50 did it give?
A: Its IC50 is 520 nM.

Q: With `OC(CNCc1ccnc(-c2ccc(C(F)(F)F)cc2)n1)c1ccccc1` (centres unmarked) [Example 182, 1-phenyl-2-[({2-[4-(trifluoromethyl)phenyl]pyrimidin-4-yl}methyl)amino]ethanol] as the molecule, how does the IC50 read?
A: The IC50 was > 20000 nM.
